A word on the Ki: it is the equilibrium dissociation constant of an inhibitor or competing ligand from its target.

What all share (type): biochemical
One assay has as its target T1, human factor Xa (Homo sapiens, UniProt P00742).
T1 construct: purchased Enzyme Research Laboratories, South Bend, Ind
The assay is described as follows: Inhibition of human factor Xa (chromogenic substrate S2222), inhibitory constant Ki. As to conditions: S2222, pH 7.5, 30 minutes, read-out: Ki values for inhibition of Serine Proteases: Factor Xa. The method, then: (§1) The effectiveness of compounds of the present invention as inhibitors of blood coagulation proteases was determined using purified human proteases and synthetic substrates following procedures similar to those described in Kettner et al. (1990).
(§2) For these assays, the rate of enzymatic (thrombin, Factor Xa, and Factor VIIa) hydrolysis of chromogenic substrates (S2238 (H-D-Phe-Pip-Arg-pNA), S2222, and S2288, respectively; Kabi Pharmacia, Franklin, Ohio.) was measured both in the absence and presence of compounds of the present invention. […] A decrease in the rate of absorbance change at 405 nm in the presence of inhibitor is indicative of enzyme inhibition. The results of this assay are expressed as inhibitory constant, Ki.
(§3) Thrombin and Xa determinations were made in 0.10M sodium phosphate buffer, pH 7.5, containing 0.20M NaCl, and 0.5% PEG 8000. VIIa determinations were made in 0.05M tris buffer, pH 7.6, containing 0.10M NaCl, 4 mM CaCl2, and 0.1% bovine serum albumin. The Michaelis constant, Km, for substrate hydrolysis was determined at 5° C. using the method of Lineweaver and Burk.
(§4) Values of Ki were determined by allowing 0.2-0.5 nM human thrombin or human factor Xa (Enzyme Research Laboratories, South Bend, Ind.), or 50 nM human factor VIIa (BiosPacific, Emeryville, Calif.) react with the substrate (0.20 mM-1 mM) in the presence of inhibitor. Reactions were allowed to go for 30 minutes and the velocities (rate of absorbance change vs time) were measured in the time frame of 25-30 minutes. The following relationship was used to calculate Ki values. [formula] where: vo is the velocity of the control in the absence of inhibitor;
(§5) vs is the velocity in the presence of inhibitor;
(§6) I is the concentration of inhibitor;
(§7) Ki is the dissociation constant of the enzyme: inhibitor complex;
(§8) S is the concentration of substrate;
(§9) Km is the Michaelis constant.

The next assay has as its target T2, human thrombin (Homo sapiens, UniProt P00734).
T2 construct: purchased Enzyme Research Laboratories, South Bend, Ind
Briefly: Inhibition of human thrombin (chromogenic substrate S2238), inhibitory constant Ki. As to conditions: 0.2-0.5 nM human thrombin, S2238, pH 7.5, 30 minutes; read-out: Ki values for inhibition of Serine Proteases: Thrombin. The method, then: as §1, §2, §3, §4, §5, §6, §7, §8, §9

In another assay the target is T3, human factor VIIa (Homo sapiens, UniProt P08709).
T3 construct: Factor VIIa in the extrinsic pathway; purchased BiosPacific, Emeryville, Calif
T3 sequence (P08709 213-466 limits assumed): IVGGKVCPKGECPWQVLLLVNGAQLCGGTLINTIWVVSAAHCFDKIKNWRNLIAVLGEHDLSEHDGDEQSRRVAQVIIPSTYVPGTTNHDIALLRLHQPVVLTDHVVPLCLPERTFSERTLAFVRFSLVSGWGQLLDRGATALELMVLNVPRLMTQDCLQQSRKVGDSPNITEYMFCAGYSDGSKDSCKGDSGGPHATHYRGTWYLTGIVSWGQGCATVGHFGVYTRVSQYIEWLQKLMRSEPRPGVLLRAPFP
T3 sequence (P08709 61-212 partner limits assumed): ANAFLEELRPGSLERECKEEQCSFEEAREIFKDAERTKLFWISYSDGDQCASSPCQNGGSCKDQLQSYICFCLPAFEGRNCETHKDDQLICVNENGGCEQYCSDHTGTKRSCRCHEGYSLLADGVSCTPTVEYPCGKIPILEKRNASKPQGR
The assay is described as follows: Inhibition of human factor VIIa (chromogenic substrate S2288), inhibitory constant Ki. As to conditions: 50 nM human factor VIIa, S2288, pH 7.6, 4 mM CaCl2, 30 minutes; read-out: Ki values for inhibition of Serine Proteases: Factor VIIa. The method, then:
as §1, §2, §3, §4, §5, §6, §7, §8, §9

T1 sequence (P00742 235-488 limits assumed): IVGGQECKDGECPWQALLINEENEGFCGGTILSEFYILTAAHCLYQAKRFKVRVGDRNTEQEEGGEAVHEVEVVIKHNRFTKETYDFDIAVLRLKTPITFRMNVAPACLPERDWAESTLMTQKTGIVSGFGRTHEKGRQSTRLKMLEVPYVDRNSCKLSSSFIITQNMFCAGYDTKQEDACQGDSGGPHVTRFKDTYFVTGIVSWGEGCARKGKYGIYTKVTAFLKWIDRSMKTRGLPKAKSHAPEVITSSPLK
T1 sequence (P00742 41-179 partner limits assumed): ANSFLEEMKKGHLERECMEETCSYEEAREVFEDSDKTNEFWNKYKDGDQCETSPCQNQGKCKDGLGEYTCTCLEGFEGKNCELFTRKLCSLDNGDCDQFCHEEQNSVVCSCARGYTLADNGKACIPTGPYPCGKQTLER

Turning to `CC1(C)C2CC3OB([C@H](CCCNC(=N)N)NC(=O)Cn4nc(Cc5ccccc5)nc4Cc4ccccc4)OC3(C)C1C2` (single isomer, unassigned) [Example 967], the Ki at human factor Xa was 500 to 50000 nM; at human thrombin it was < 500 nM; at human factor VIIa, < 500 nM.
For the molecule `CC1(C)C2CC3OB([C@H](CCCNC(=N)N)NC(=O)Cn4nc(-c5cccc([N+](=O)[O-])c5)nc4Cc4ccccc4)OC3(C)C1C2` (single isomer, unassigned) [Example 969], the Ki is 500 to 50000 nM at human factor Xa, < 500 nM at human thrombin and 500 to 50000 nM on human factor VIIa.
For `COCCC[C@H](NC(=O)Cn1nc(CC#N)nc1Cc1ccccc1)B1OC2CC3CC(C3(C)C)C2(C)O1` (single isomer, unassigned) [Example 1352], the Ki at human factor Xa was 500 to 50000 nM; at human thrombin, < 500 nM.
Regarding `CC1(C)C2CC3OB([C@H](CCCCN)NC(=O)Cn4ncnc4CCc4ccccc4)OC3(C)C1C2` (single isomer, unassigned) [Example 1431], on human thrombin, the Ki is < 500 nM.
For `CC1(C)C2CC3OB([C@H](CCCCN)NC(=O)Cn4nc(CO)nc4CCc4ccccc4)OC3(C)C1C2` (single isomer, unassigned) [Example 1459], the values for the Ki on human factor Xa, at human thrombin and on human factor VIIa were 500 to 50000 nM, < 50000 nM and 500 to 50000 nM, respectively.
For the molecule `CC1(C)C2CC3OB([C@H](CCCCN)NC(=O)Cn4nc(CCc5ccccc5)nc4CCc4ccccc4)OC3(C)C1C2` (single isomer, unassigned) [Example 1467], the results for the Ki at human thrombin and at human factor VIIa were < 500 nM and 500 to 50000 nM, respectively.
Regarding `CC1(C)C2CC3OB([C@H](CCCCN)NC(=O)Cn4nc(Cc5nn[nH]n5)nc4Cc4ccccc4)OC3(C)C1C2` (single isomer, unassigned) [Example 2067], the Ki at human thrombin is < 500 nM.
On to `CC1(C)C2CC3OB([C@H](CCCCN)NC(=O)Cn4nc(COCc5ccccc5)nc4CCc4ccccc4)OC3(C)C1C2` (single isomer, unassigned) [Example 2068], for which the Ki on human factor Xa is 500 to 50000 nM; at human thrombin, < 50000 nM; on human factor VIIa it was 500 to 50000 nM.
`CC1(C)C2CC3OB([C@H](CCCCN)NC(=O)Cn4cnc(-c5ccccc5)n4)OC3(C)C1C2` (single isomer, unassigned) [Example 2073]: the results for the Ki at human factor Xa, at human thrombin and on human factor VIIa were 500 to 50000 nM, < 500 nM and 500 to 50000 nM, respectively.
`Cc1nc(-c2ccccc2)nn1CC(=O)N[C@@H](CCCCN)B1OC2CC3CC(C3(C)C)C2(C)O1` (single isomer, unassigned) [Example 2074]: the Ki at human factor Xa was 500 to 50000 nM; on human thrombin it was < 500 nM; at human factor VIIa, 500 to 50000 nM.
On to `CC1(C)C2CC3OB([C@H](CCCCN)NC(=O)Cn4cnc(Cc5ccccc5)n4)OC3(C)C1C2` (single isomer, unassigned) [Example 2411], for which the Ki on human thrombin was < 500 nM.
Take `Cc1nc(Cc2ccccc2)nn1CC(=O)N[C@@H](CCCCN)B1OC2CC3CC(C3(C)C)C2(C)O1` (single isomer, unassigned) [Example 2412]: the Ki is 500 to 50000 nM at human factor Xa, < 500 nM at human thrombin and 500 to 50000 nM on human factor VIIa.
Take `CCCc1nc(Cc2ccccc2)nn1CC(=O)N[C@@H](CCCCN)B1OC2CC3CC(C3(C)C)C2(C)O1` (single isomer, unassigned) [Example 2414]: the inhibition constant (Ki) at human factor Xa is 500 to 50000 nM; at human thrombin it was < 500 nM; on human factor VIIa, 500 to 50000 nM.
As to `CSCc1nc(Cc2ccccc2)nn1CC(=O)N[C@@H](CCCCN)B1OC2CC3CC(C3(C)C)C2(C)O1` (single isomer, unassigned) [Example 2416], the results for the inhibition constant (Ki) on human factor Xa, at human thrombin and at human factor VIIa were 500 to 50000 nM, < 500 nM and 500 to 50000 nM, respectively.
Regarding `CC1(C)C2CC3OB([C@H](CCCCN)NC(=O)Cn4nc(Cc5ccccc5)nc4CC#N)OC3(C)C1C2` (single isomer, unassigned) [Example 2422], the results for the inhibition constant (Ki) at human factor Xa, on human thrombin and at human factor VIIa were 500 to 50000 nM, < 500 nM and 500 to 50000 nM, respectively.
Regarding `CC1(C)C2CC3OB([C@H](CCCCN)NC(=O)Cn4nc(Cc5ccccc5)nc4CC(=O)O)OC3(C)C1C2` (single isomer, unassigned) [Example 2430], the results for the inhibitory constant (Ki) at human factor Xa, at human thrombin and at human factor VIIa were 500 to 50000 nM, < 50000 nM and > 500000 nM, respectively.
With `CC1(C)C2CC3OB([C@H](CCCCN)NC(=O)Cn4cnc(CCc5ccccc5)n4)OC3(C)C1C2` (single isomer, unassigned) [Example 2752], the Ki on human thrombin was < 500 nM.
For `CC1(C)C2CC3OB([C@H](CCCCN)NC(=O)Cc4nc(Cc5ccccc5)n(Cc5ccccc5)n4)OC3(C)C1C2` (single isomer, unassigned) [Example 3349], the Ki at human factor Xa is 500 to 50000 nM; on human thrombin it was < 500 nM.
On the same counts, the results for `CC(C)(C)OC(=O)Nc1cccc(-c2ccc(C(=O)N[C@@H](CCCNC(=N)N)B3OC4CC5CC(C5(C)C)C4(C)O3)s2)c1` (single isomer, unassigned) [Example 5426] are < 500 nM and < 500 nM.
Regarding `CC(C)(C)OC(=O)Nc1cccc(-c2ccc(C(=O)N[C@@H](CCCNC(=N)N)B3OC4CC5CC(C5(C)C)C4(C)O3)o2)c1` (single isomer, unassigned) [Example 5529], the Ki on human factor Xa and on human thrombin was < 500 nM each time.
For `CC1(C)[C@@H]2C[C@H]3OB([C@H](CCCNC(=N)N)NC(=O)c4ccc(-c5ccccc5)cc4)O[C@@]3(C)[C@H]1C2` [Example 1, N^1-(4-Phenylbenzoyl)boroarginine (+)-Pinanediol, Bisulfite], the figures for the Ki on human factor Xa and on human thrombin were 500 to 50000 nM and < 500 nM, respectively.
As to `Cc1cc(-c2ccccc2)ccc1C(=O)N[C@@H](CCCNC(=N)N)B1O[C@@H]2C[C@@H]3C[C@@H](C3(C)C)[C@]2(C)O1` [Example 29], the Ki at human thrombin is < 500 nM.
In the case of `Cc1cc(-c2ccccc2)ccc1C(=O)N[C@@H](CCCNC(=N)N)B(O)O` [Example 129], the Ki at human factor Xa and at human thrombin was < 500 nM in each case.
As to `CC(C)(C)NS(=O)(=O)c1ccccc1-c1ccc(C(=O)N[C@@H](CCCNC(=N)N)B2O[C@@H]3C[C@@H]4C[C@@H](C4(C)C)[C@]3(C)O2)c([N+](=O)[O-])c1` [Example 288], the Ki on human thrombin and on human factor VIIa was < 500 nM in each case.
In the case of `CC1(C)[C@@H]2C[C@H]3OB([C@H](CCCCN)NC(=O)Cn4ncnc4Cc4ccccc4)O[C@@]3(C)[C@H]1C2` [Example 887], at human thrombin, the Ki is < 500 nM.
Still for that read-out and setting: in the case of `CC1(C)[C@@H]2C[C@H]3OB([C@H](CCCCN)NC(=O)Cn4nc(-c5ccccc5)nc4Cc4ccccc4)O[C@@]3(C)[C@H]1C2` [Example 920] it was < 500 nM; in that of `NCCCC[C@H](NC(=O)Cn1ncnc1Cc1ccccc1)B(O)O` [Example 977], < 500 nM; in that of `NCCCC[C@H](NC(=O)Cn1ncnc1CCc1ccccc1)B(O)O` [Example 1521], < 500 nM.
Regarding `NCCCC[C@H](NC(=O)Cn1nc(CCc2ccccc2)nc1CCc1ccccc1)B(O)O` [Example 1557], the Ki was < 500 nM at human thrombin and 500 to 50000 nM at human factor VIIa.
`NCCCC[C@H](NC(=O)Cn1cnc(CCc2ccccc2)n1)B(O)O` [Example 2837]: the Ki at human thrombin is < 50000 nM.
As for `CC1(C)[C@@H]2C[C@H]3OB([C@H](CCCCN)NC(=O)c4ccc(-c5ccccc5)nc4)O[C@@]3(C)[C@H]1C2` [Example 4064], the figures for the Ki on human factor Xa and on human thrombin were 500 to 50000 nM and < 50000 nM, respectively.
In the same order, the values of `NCCCC[C@H](NC(=O)c1ccc(-c2ccccc2)nc1)B(O)O` [Example 4065] are 500 to 50000 nM and < 50000 nM.
